From US9133178B2, “Alpha-7 nicotinic receptor modulators for the treatment of pain, a psychotic disorder, cognitive impairment or alzheimer'S disease” (Proximagen Limited, priority 2010, dated 2015)
Where a name gives a salt, the structure may show the parent alone. Read-outs that look alike come from different tables or passages of the source.

Target: T1, human α7 nAChR (Homo sapiens, UniProt P36544)
T1 construct: expressed in transfected cells; host or cells: GH4C1 (rat pituitary cell line)
Experiment: cell-based calcium flux assay (FLIPR) for PAM activity at the α7 nAChR
Procedure: The PAM activity of the compounds of the invention at the α7 nAChR may be determined using the following cell-based calcium flux assay which uses a Fluorimetric Image Plate Reader (FLIPR) (see Schroeder et al.; J. Biomolecular Screening, 1(2), p 75-80, 1996).
GH4C1 cell line stably transfected with human α7 nAChR was suspended in a 384 well plate and incubated at 30° C. for 48 h in a 5% carbon dioxide atmosphere. The growth media was removed and the cells washed three times with a solution of Hanks' balanced salt solution (HBSS), 20 mM HEPES and 2.5 mM probenecid leaving 20 μl washing solution in each well. A loading solution (200) containing HBSS, probenecid, 1-4 μM Fluo4 AM (a calcium indicator dye) and pluronic acid was added and the plate incubated for 45 min at 37° C. under an atmosphere free from carbon dioxide. The cells were washed three times leaving 30 μl in each well. The plate containing the cells and calcium indicator dye were then transferred to the FLIPR. The assay was initiated by collecting baseline datapoints at 10 second intervals followed by addition of the test compound in buffer solution (0.33% DMSO) and diluted to a final concentration of 10 μM and serial dilution of the wells, 1:2 or 1:3, gave a low concentration of <1 nM. Following a further 5-10 mins 10 μl of 50 μM nicotine was added and data collected for 2 to 3 mins. Nicotine produced a rapid, transient and reproducible calcium flux which could be potentiated with the positive allosteric modulator test compounds.

[1] = Table 1, potentiation of nicotine-evoked calcium flux, GH4C1 cells stably transfected with human α7 nAChR, read-out: a7 new sm > PXC50 MEAN
[2] = Table 2, commercially available compounds, potentiation of nicotine-evoked calcium flux, GH4C1 cells stably transfected with human α7 nAChR, read-out: a7 new sm > PXC50 MEAN

T1 sequence (P36544 23-502): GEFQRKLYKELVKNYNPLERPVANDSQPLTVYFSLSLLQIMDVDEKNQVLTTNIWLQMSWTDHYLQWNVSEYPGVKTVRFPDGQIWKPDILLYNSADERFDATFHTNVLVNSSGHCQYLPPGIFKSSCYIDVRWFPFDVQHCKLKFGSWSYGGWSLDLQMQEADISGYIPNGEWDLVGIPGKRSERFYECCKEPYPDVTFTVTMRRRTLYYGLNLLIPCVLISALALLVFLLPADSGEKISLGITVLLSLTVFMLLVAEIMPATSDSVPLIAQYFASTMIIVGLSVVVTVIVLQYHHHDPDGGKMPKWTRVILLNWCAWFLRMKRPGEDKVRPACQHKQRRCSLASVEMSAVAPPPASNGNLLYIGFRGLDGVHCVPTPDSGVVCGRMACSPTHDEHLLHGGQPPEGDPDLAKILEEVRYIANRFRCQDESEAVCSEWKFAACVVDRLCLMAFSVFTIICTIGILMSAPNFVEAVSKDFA

| EC50 [1] [µM] | EC50 [2] [µM] | SMILES | other results |
| --- | --- | --- | --- |
| – | – | Cc1cc(-c2cnc(N3C[C@@H](C)O[C@@H](C)C3)nc2-c2ccccc2C#N)ccn1 | EC50 (further batch (as the HCl salt), read-out: pEC50 (converted)): > 10 µM; maximum potentiation of the response area relative to nicotine control (further batch (as the HCl salt)): approximately 1200%; EC50 (potentiation of nicotine-evoked calcium flux, read-out: pEC50 (converted)): ~2.51 µM; maximum potentiation of the response area relative to nicotine control: approximately 1200% |
| ≤ 1 | – | Cc1cc(-c2cnc(N3C[C@H](C)O[C@@H](C)C3)nc2-c2ccoc2C)ccn1 (relative stereo) [Example 6, trans-2,6-Dimethyl-4-[4-(2-methyl-3-furanyl)-5-(2-methyl-4-pyridinyl)-2-pyrimidinyl]morpholine hydrochloride] | – |
| – | ≤ 3.16 | Cc1occc1-c1nc(N2CCCC2)ncc1-c1ccncc1 [ADM 13269675] | – |
| – | ≤ 1 | Cc1occc1-c1nc(N2CCCCC2)ncc1-c1ccncc1 [ADM 13269676] | – |
| – | ≤ 1 | Cc1occc1-c1nc(N2CCCC(C)C2)ncc1-c1ccncc1 (centres unmarked) [ADM 13269678] | – |
| – | ≤ 3.16 | Cc1occc1-c1nc(N2CCSCC2)ncc1-c1ccncc1 [ADM 13269686] | – |
| – | ≤ 1 | Cc1occc1-c1nc(N2CC(C)OC(C)C2)ncc1-c1ccncc1 (centres unmarked) [ADM 13269721] | – |
| – | ≤ 10 | Cc1occc1-c1nc(N2CCN(C(=O)c3ccco3)CC2)ncc1-c1ccccn1 [ADM 13270126] | – |
| – | ≤ 10 | Cc1ccc(-c2nc(N3CCCC3)ncc2-c2cc(C)no2)cn1 [ADM 14220366] | – |
| – | ≤ 1 | Cc1ccc(-c2nc(N3CCCC(C)C3)ncc2-c2cc(C)no2)cn1 (centres unmarked) [ADM 14220368] | – |
| – | ≤ 1 | Cc1ccc(-c2nc(N3CCCCC3)ncc2-c2cc(C)no2)cn1 [ADM 14220371] | – |
| – | ≤ 3.16 | Cc1cc(-c2cnc(N3CCSCC3)nc2-c2ccc(C)s2)on1 [ADM 14408364] | – |
| – | ≤ 1 | c1cc(-c2cnc(N3CCSCC3)nc2-c2ccoc2)ccn1 [ADM 14465558] | – |
| – | ≤ 10 | c1cc(-c2cnc(N3CCCCC3)nc2-c2ccoc2)ccn1 [ADM 14465561] | – |
| – | ≤ 3.16 | Cc1cc(-c2cnc(N3CCSCC3)nc2-c2ccc(C)o2)on1 [AEM 14465590] | – |
| – | ≤ 1 | c1ccc(-c2nnc(N3CCCC3)nc2-c2ccccc2)cc1 [AO-476/43380313] | – |
| – | ≤ 3.16 | Cc1ccc(-c2nc(N3CCCCC3)ncc2-c2ccncc2)cn1 [AOP 13274014] | – |
| – | ≤ 1 | Cc1ccc(-c2nc(N3CCCC(C)C3)ncc2-c2ccncc2)cn1 (centres unmarked) [AOP 13274016] | – |
| – | ≤ 3.16 | Cc1noc(C)c1-c1nc(N2CCCC(C)C2)ncc1-c1ccncc1 (centres unmarked) [AOP 14465526] | – |
| – | ≤ 10 | Cc1noc(C)c1-c1nc(N2CCSCC2)ncc1-c1ccncc1 [AOP 14465529] | – |
| – | ≤ 3.16 | Cc1noc(C)c1-c1nc(N2CCCCCC2)ncc1-c1ccncc1 [AOP 14465544] | – |
| – | ≤ 3.16 | Cc1occc1-c1nc(N2CCCCCC2)ncc1-c1ccncc1 [ATL 13269690 or ADM 13269690] | – |

| EC50 [1] [µM] | EC50 [2] [µM] | SMILES | other results |
| --- | --- | --- | --- |
| – | ≤ 10 | COc1cc(-c2cnc(N3CCCC3)nc2-c2ccco2)nc(OC)n1 [ATL 14631887] | – |
| – | ≤ 10 | COc1cc(-c2cnc(N3CCCCC3)nc2-c2ccco2)nc(OC)n1 [ATL 14631888] | – |
| ≤ 1 | – | Cc1occc1-c1nc(N2CCCC(C)C2)ncc1-c1ccncc1 (centres unmarked) [Example 1, 4-(2-Methyl-3-furanyl)-2-(3-methyl-1-piperidinyl)-5-(4-pyridinyl)pyrimidine hydrochloride] | – |
| ≤ 10 | – | Cc1occc1-c1nc(N2CCCC(C)C2)ncc1-c1cccnc1 (centres unmarked) [Example 2, 4-(2-Methyl-3-furanyl)-2-(3-methyl-1-piperidinyl)-5-(3-pyridinyl)pyrimidine hydrochloride] | – |
| ≤ 1 | – | Cc1cc(-c2cnc(N3CCCC(C)C3)nc2-c2ccoc2C)ccn1 (centres unmarked) [Example 3, 4-(2-Methyl-3-furanyl)-2-(3-methyl-1-piperidinyl)-5-(2-methyl-4-pyridinyl)pyrimidine hydrochloride] | – |
| ≤ 1 | – | Cc1cc(-c2cnc(N3CCCCC3)nc2-c2ccoc2C)ccn1 [Example 4, 4-(2-Methyl-3-furanyl)-5-(2-methyl-4-pyridinyl)-2-(1-piperidinyl)pyrimidine hydrochloride] | – |
| ≤ 1 | – | Cc1cc(-c2cnc(N3C[C@@H](C)O[C@@H](C)C3)nc2-c2ccoc2C)ccn1 [Example 5, cis-2,6-Dimethyl-4-[4-(2-methyl-3-furanyl)-5-(2-methyl-4-pyridinyl)-2-pyrimidinyl]morpholine hydrochloride] | – |
| ≤ 10 | – | Cc1occc1-c1nc(N2CCCCCC2)ncc1-c1ccccn1 [Example 7, 1-[4-(2-Methyl-3-furanyl)-5-(2-Pyridinyl)-2-pyrimidinyl]hexahydro-1H-azepine hydrochloride] | – |
| ≤ 3.16 | – | Cc1occc1-c1nc(N2CCCC(C)C2)ncc1-c1ccccn1 (centres unmarked) [Example 8, 4-(2-Methyl-3-furanyl)-2-(3-methyl-1-piperidinyl)-5-(2-pyridinyl)pyrimidine hydrochloride] | – |
| ≤ 1 | – | Cc1cc(-c2cnc(N3C[C@@H](C)O[C@@H](C)C3)nc2CC(C)C)ccn1 [Example 9, cis-2,6-Dimethyl-4-[4-(2-methylpropyl)-5-(2-methyl-4-pyridinyl)-2-pyrimidinyl]morpholine hydrochloride] | – |
| ≤ 3.16 | – | Cc1cc(-c2ncc(N3C[C@@H](C)O[C@@H](C)C3)nc2-c2ccoc2C)ccn1 [Example 10, cis-2,6-Dimethyl-4-[6-(2-methyl-3-furanyl)-5-(2-methyl-4-pyridinyl)-2-pyrazinyl]morpholine hydrochloride] | – |
| ≤ 3.16 | – | Cc1cc(-c2cnc(N3C[C@@H](C)O[C@@H](C)C3)cc2-c2ccoc2C)ccn1 [Example 11, 6-(cis-2,6-dimethyl-4-morpholinyl)-2′-methyl-4-(2-methyl-3-furanyl)-3,4′-bipyridine hydrochloride] | – |
| ≤ 3.16 | – | Cc1cc(-c2ccc(N3C[C@@H](C)O[C@@H](C)C3)nc2-c2ccoc2C)ccn1 [Example 12, 6-(cis-2,6-dimethyl-4-morpholinyl)-2′-methyl-2-(2-methyl-3-furanyl)-3,4′-bipyridine hydrochloride] | – |
| ≤ 1 | – | Cc1cc(-c2ccc(N3C[C@@H](C)O[C@@H](C)C3)cc2-c2ccoc2C)ccn1 [Example 13, cis-2,6-Dimethyl-4-[3-(2-methyl-3-furanyl)-4-(2-methyl-4-pyridinyl)phenyl]morpholine] | – |
| ≤ 3.16 | – | Cc1cc(-c2cnc(N3C[C@@H](C)O[C@@H](C)C3)nc2-c2ccccc2C)ccn1 [Example 14, cis-2,6-Dimethyl-4-[4-(2-methylphenyl)-5-(2-methyl-4-pyridinyl)-2-pyrimidinyl]morpholine] | – |
| ≤ 3.16 | – | Cc1cnccc1-c1cnc(N2C[C@@H](C)O[C@@H](C)C2)nc1-c1ccoc1C [Example 15, cis-2,6-dimethyl-4-[4-(2-methyl-3-furanyl)-5-(3-methyl-4-pyridinyl)-2-pyrimidinyl]morpholine hydrochloride] | – |
| ≤ 10 | – | Cc1cc(-c2cnc(N3C[C@@H](C)O[C@@H](C)C3)nc2-c2cccnc2C(F)(F)F)ccn1 [Example 16, cis-2,6-Dimethyl-4-{5-(2-methyl-4-pyridinyl)-4-[2-(trifluoromethyl)-3-pyridinyl]-2-pyrimidinyl}morpholine hydrochloride] | – |
| ≤ 3.16 | – | Cc1cc(-c2cnc(N3C[C@@H](C)O[C@@H](C)C3)nc2-c2cnc(F)cc2C)ccn1 [Example 17, cis-4-[4-(6-Fluoro-4-methyl-3-pyridinyl)-5-(2-methyl-4-pyridinyl)-2-pyrimidinyl]-2,6-dimethylmorpholine hydrochloride] | – |
| ≤ 10 | – | Cc1cc(-c2cnc(N3C[C@@H](C)O[C@@H](C)C3)nc2-c2cc(F)ccc2C#N)ccn1 [Example 18, cis-2-[2-(2,6-Dimethyl-4-morpholinyl)-5-(2-methyl-4-pyridinyl)-4-pyrimidinyl]-4-fluorobenzonitrile hydrochloride] | – |
| ≤ 1 | – | Cc1cc(-c2cnc(N3C[C@@H](C)O[C@@H](C)C3)nc2-c2cccc(C(F)(F)F)c2C#N)ccn1 [Example 19, cis-2-[2-(2,6-dimethyl-4-morpholinyl)-5-(2-methyl-4-pyridinyl)-4-pyrimidinyl]-6-(trifluoromethyl)benzonitrile hydrochloride] | – |
| – | ≤ 10 | CC1CCCN(c2ncc(-c3ccncc3)c(-c3ccco3)n2)C1 (centres unmarked) [LMK 13268083] | – |
| – | ≤ 3.16 | c1coc(-c2cnc(N3CCSCC3)nc2-c2ccco2)c1 [LMK 13280444] | – |
